For assay [1], the target named is T1, human neuronal constitutive NOS (hncNOS) (Homo sapiens, UniProt P29475).
T1 construct: made in house; host or cells: insect cells, baculovirus vector
In words: biochemical. As to conditions: recombinant human neuronal constitutive NOS, 37° C., 15 minutes, calmodulin 40-100 nM. Here is the method: (§1) Citrulline Assay for Nitric Oxide Synthase
(§2) Nitric oxide synthase activity was measured by monitoring the conversion of L-[2,3-3H]-arginine to L-[2,3-3H]-citrulline (1,2). The cDNA for human inducible NOS (hiNOS) was isolated from a lcDNA library made from RNA extracted from a colon sample from a patient with ulcerative colitis; human endothelial constitutive NOS (hecNOS) was isolated from a lcDNA library made from RNA extracted from human umbilical vein endothelial cells (HUVEC); and human neuronal constitutive NOS (hncNOS) was isolated from a lcDNA library made from RNA extracted from human cerebellum from a cadaver. The recombinant enzymes were expressed in insect cells using a baculovirus vector. Enzyme activity was isolated from cell extracts and partially purified by DEAE-Sepharose chromatography (2). […] For constitutive NOS, calmodulin was included at a final concentration of 40-100 nM. Following incubation at 37° C. for 15 minutes, the reaction was terminated by addition of 300 μL cold buffer containing 10 mM EGTA, 100 mM HEPES (pH5.5) and 1.0 mM L-citrulline. The [3H]-citrulline was separated by chromatography on Dowex 50W X-8 cation exchange resin and radioactivity quantified with a liquid scintillation counter.

Assay [2] has as its target T2, human inducible NOS (hiNOS) (Homo sapiens, UniProt P35228).
T2 construct: made in house; host or cells: insect cells, baculovirus vector
In words: Citrulline Assay for Nitric Oxide Synthase, hiNOS. The settings on record: recombinant human inducible NOS, 37° C., 15 minutes. The class given is biochemical. As for the experimental part: as §1, §2

The target of assay [3] is T3, human endothelial constitutive NOS (hecNOS) (Homo sapiens, UniProt P29474).
T3 construct: made in house; host or cells: insect cells, baculovirus vector
The assay can be described thus: Citrulline Assay for Nitric Oxide Synthase, hecNOS. The settings on record: recombinant human endothelial constitutive NOS, 37° C., 15 minutes, calmodulin 40-100 nM. It counts as biochemical. Here is the method:
as §1, §2

A further assay has as its target T4, RAW cell miNOS (Mus musculus, UniProt P29477).
T4 construct: in the presence of LPS to induce NOS; endogenous in cells; host or cells: RAW 264.7 cells, LPS-induced
In words: Raw Cell Nitrite Assay. The class given is cell-based. The settings on record: RAW 264.7 cells, LPS-induced, L-arginine 30 μM, nitrite production 1 h at 37° C. Here is the method:
RAW 264.7 cells are plated to confluency on a 96-well tissue culture plate grown overnight (17 h) in the presence of LPS to induce NOS. […] The media is removed from each well and the cells are washed twice with Krebs-Ringers-Hepes (25 mM, pH 7.4) with 2 mg/ml glucose. The cells are then placed on ice and incubated with 50 μL of buffer containing L-arginine (30 μM) ± inhibitors for 1 h. The assay is initiated by warming the plate to 37° C. in a water bath for 1 h. […] To terminate the cellular assay, the plate of cells is placed on ice and the nitrite-containing buffer removed and analyzed for nitrite using a previously published fluorescent determination for nitrite. All values are the average of triplicate wells and are compared to a background-subtracted induced set of cells (100% value).

The test system of another assay is Plasma Nitrites/Nitrates. The assay can be described thus: In Vivo Assay: plasma nitrites/nitrates, Endotoxin in Rat Model. Set-up: species or system Rats. As to conditions: 10 mg/kg p.o., 1 hour prior to LPS 10 mg/kg i.p., plasma nitrites 5 hours post-treatment. As for the experimental part: In Vivo Assay Rats were treated with an intraperitoneal injection of 10 mg/kg of endotoxin (LPS) with or without oral administration of the nitric oxide synthase inhibitors administered 1 hour prior to LPS. Plasma nitrites were measured 5 hours post-treatment.

Structures can show the parent of a compound that is named as a salt. Where two headings read alike, the source gives them in different places.

A word on the IC50: it is the concentration that inhibits the measured activity by half.

On to `C[C@@H]1CC(=N)N[C@H]1Cc1ccccc1` (relative stereo) [Example 64, (±) (trans) 4-methyl-5-(phenylmethyl)pyrrolidin-2-imine, Monohydrochloride], for which the IC50 in assay [1] (read-out: IC50 hncNOS) was determined as 8.3 µM; in assay [2], 3 µM; in assay [3], 458 µM; at RAW cell miNOS (read-out: IC50 RAW cell miNOS), 5.4 µM. In addition, the “% Inhibition of Plasma Nitrites/Nitrates” value with Plasma Nitrites/Nitrates is on record as 35%.
Take `N=C1CCCCC(Cc2ccccc2)N1` (single isomer, unassigned; (+)) [Example 14, (+)-hexahydro-7-(phenylmethyl)-1H-azepin-2-imine, Monohydrochloride]: the IC50 in assay [1] (read-out: IC50 hncNOS) was 30 µM; in assay [2] it was 62 µM; in assay [3], 651 µM; on RAW cell miNOS (read-out: IC50 RAW cell miNOS), 170 µM.
For `N=C1CCCCC(Cc2ccccc2)N1` (single isomer, unassigned; (-)) [Example 16, (-)-hexahydro-7-(phenylmethyl)-1H-azepin-2-imine, Monohydrochloride] the same measures were 14 µM, 3.6 µM, 599 µM and 1.8 µM.
`Cl.N=C1CCCCC(Cc2ccccc2)N1` (stereo not shown) [Example 5, Hexahydro-7-(phenylmethyl)-1H-azepin-2-imine, Monohydrochloride]: the IC50 in assay [1] (read-out: IC50 hncNOS) is 15 µM; in assay [2], 6.2 µM; in assay [3], 792 µM; at RAW cell miNOS (read-out: IC50 RAW cell miNOS), 66 µM. The “% Inhibition of Plasma Nitrites/Nitrates” value in the assay with Plasma Nitrites/Nitrates came to 37%.
Take `N=C1CCCCC(CC2CCCCC2)N1` (stereo not shown) [Example 9, 7-(cyclohexylmethyl)hexahydro-1H-azepin-2-imine, Monohydrochloride]: the IC50 is 74 µM in assay [1] (read-out: IC50 hncNOS), 9.7 µM in assay [2], 575 µM in assay [3] and greater than 100 µM on RAW cell miNOS (read-out: IC50 RAW cell miNOS).
With `N=C1CCCCC(CC2CO2)N1` (stereo not shown) [Example 21, Hexahydro-7-[(oxiran-2-yl)methyl]-1H-azepin-2-imine, Monohydrochloride], the IC50 in assay [1] (read-out: IC50 hncNOS) worked out at 8.4 µM; on RAW cell miNOS (read-out: IC50 RAW cell miNOS) it was 28 µM.
Regarding `N=C1CCCCC(C/C=C/c2ccccc2)N1` (stereo not shown) [Example 34, Hexahydro-7-(3-phenyl-2-propenyl)-1H-azepin-2-imine, Monohydrochloride], the results for the IC50 in assay [1] (read-out: IC50 hncNOS), in assay [2] and in assay [3] were 24 µM, 8.1 µM and 183 µM, respectively.
Regarding `N=C1CCCCC(CCCc2ccccc2)N1` (stereo not shown) [Example 37, Hexahydro-7-(3-phenylpropyl)-1H-azepin-2-imine, Monohydrochloride], the IC50 in assay [1] (read-out: IC50 hncNOS) was determined as 118 µM; in assay [2] it was 19 µM; in assay [3] it was 836 µM; on RAW cell miNOS (read-out: IC50 RAW cell miNOS), 80 µM.
Regarding `NC1=NC(Cc2ccccc2)CCC1` (stereo not shown) [Example 94, 6-(phenylmethyl)piperidin-2-imine, Monohydrochloride], the IC50 was found to be 0.71 µM in assay [1] (IC50 hncNOS) and 7.9 µM on RAW cell miNOS (IC50 RAW cell miNOS).
As to `N=C1CCCC(CC2CCCCC2)N1` (stereo not shown) [Example 95, 6-(cyclohexylmethyl)piperidin-2-imine, Monohydrochloride], the IC50 in assay [1] (read-out: IC50 hncNOS) came to 28 µM; in assay [2], 5.9 µM; in assay [3], 375 µM.
With `N=C1CCCCC(CC2CC(c3ccccc3)=NO2)N1` (stereo not shown) [Example 191, 7-[(4,5-dihydro-3-phenylisoxazolyl-5-yl)methyl]hexahydro-1H-azepine-2-imine, Monotrifluoroacetic Acid Salt], the IC50 at RAW cell miNOS (read-out: IC50 RAW cell miNOS) stood at 45 µM.

(Values after US6043261A, “Pyrrolodino imidines useful as nitric oxide synthase inhibitors” (G. D. Searle & Co., priority 1998, dated 2000).)
